Results on 1 compound are retold here after patent publication US8350062B2, “Synthesis and anticancer activity of new actin-targeting small-molecule agents” (priority 2009, dated 2013).

Structures are written as SMILES.

For one assay, the system named is A549 cells. Put plainly: Cell viability assay (CellTiter-Glo), growth inhibition of A549 cells. Particulars: 24-96 h. It counts as cell-based, human. How it is done:
Cell Viability Assays. All assays were performed using at least three replicate wells for each concentration tested. Original 10-25 mM DMSO stock solution of bistramide A or its analogs was diluted to 100 μM for analogs 4-8, 10 μM for analog 3, 5 μM for analog 2 and 1 μM for bistramide A (1) with F-12K cell culture media supplemented with 10% fetal bovine serum, 100 I.U./ml penicillin, 100 μg/ml streptomycin and 2 mM L-glutamine. Two-fold serial dilutions were performed and used for cell-based assays. A549 cells were grown in 96-well white plates at the density of 1,000 cells per well in 100 μl F-12K cell culture media. Cells were allowed to attach over 24 h and treated with 30 μl of the drug solution and incubated further for 48 h. After incubation, cell viability was determined using luminescence-based commercial kit (CellTiter-Glo, Promega) and luminescence measured using a Wallac Victor 3 plate reader. To measure cell growth inhibition, viability assays were performed twice: at initial time point T0 and after 48 h incubation (T48). Change in the number of viable cells was measured, and GI50 was calculated from sigmoidal plots. For analog 10, growth of A549 and PC3 cells was monitored over 96 h following addition of the drug. 100 μM was the highest concentration tested. At no point did the total DMSO conc. exceed 1%.

Assay [1] has as its system 60 different human tumor cell lines. Put plainly: NCI 60 cell line single dose screen, whole panel. Format: cell-based. Conditions: 10 micromolar, mean over cell lines. The source says:
Analog 10 was screened utilizing 60 different human tumor cell lines, representing leukemia, melanoma and cancers of the lung, colon, brain, ovary, breast, prostate, and kidney in order to show selective growth inhibition or cell killing of particular tumor cell lines. This screen is unique in that the complexity of a 60 cell line dose response produced by a given compound results in a biological response pattern which can be utilized in pattern recognition algorithms (COMPARE program. See: http://dtp.nci.nih.gov/docs/compare/compare.html). Using these algorithms, it is possible to assign a putative mechanism of action to a test compound, or to determine that the response pattern is unique and not similar to that of any of the standard prototype compounds included in the NCI database. […]
Following drug addition, the plates are incubated for an additional 48 h at 37° C., 5% CO2, 95% air, and 100% relative humidity. […] Bound stain is subsequently solubilized with 10 mM trizma base, and the absorbance is read on an automated plate reader at a wavelength of 515 nm. […] Using the absorbance measurements [time zero, (Tz), control growth, (C), and test growth in the presence of drug (Ti)], the percentage growth is calculated.

For a further assay, the target named is T1, G-actin (Oryctolagus cuniculus, UniProt P68135).
T1 construct: Actin was purified from rabbit muscle acetone powder; tissue Pel-Freez Biologicals (acetone powder); host or cells: rabbit muscle acetone powder
Put plainly: Isothermal titration calorimetry, binding to monomeric actin. Further details: species or system rabbit. Particulars: isothermal titration calorimetry, 25° C.; read-out: Kd. As to the method: Isothermal Titration Calorimetry. A solution of rabbit skeletal muscle actin (5-10 μM) was titrated with bistramide A or its analog (50-100 μM) at 25° C. in buffer containing 2 mM Tris HCl, pH 8.0, 0.2 mM CaCl2, 0.01% NaN3, 0.2 mM ATP, 0.2 mM 2-mercaptoethanol. Dissociation constants were calculated from the binding curve using Origin analytical software (OriginLab) with the binding model involving a single set of identical sites

Assay [2] concerns F-actin in DU145 prostate cancer cell line. Put plainly: F-actin depolymerization in DU145 prostate cancer cell line. Format: cell-based, human. The source says:
We also examined the ability of 10 to depolymerize F-actin in live cells. The actin cytoskeleton can be readily visualized by fluorescent microscopy following Alexa Fluor 488 phalloidin staining.

A further assay concerns F-actin in A549 cells. Nature of the assay: Fluorescent visualization of F-actin in A549 cells (Alexa Fluor 488 phalloidin). It counts as cell-based, human. How it is done: The presence of the enone increased the severing efficiency of the analogs three-fold. […] We determined whether it was the depletion of actin filaments by analogs 2-5 which was responsible for the growth inhibition of A549 cells. Each of the compounds was incubated with A549 cells for 2 h at a concentration that exceeded the GI50 value by a factor of 5. The cells were then fixed, permeabilized and filamentous actin was visualized by fluorescence microscopy following Alexa Fluor 488 phalloidin staining. […] They induced depolymerization at 150 nM for bistramide A (1), 500 nM for analog 2 and 2 μM for analog 3. Analogs 4 and 5 induced depolymerization of actin only at concentrations as high as 100 μM. […] This observation was consistent with the enhanced cell-based activity of the compounds containing the C(1)-C(4) enone moiety.
Fluorescent Visualization Of F-Actin In Cells. A549 cells grown on coverslips were incubated with analogs 4-8 (100 μM) analog 3 (2 μM) or analog 2 (500 nM) or bistramide A (150 nM) in F-12K cell culture medium for 2 h, fixed with 3% formaldehyde in PBS at 25° C. for 5 min and permeabilized with 0.1% Triton X-100 at 25° C. for 10 min. After washing with PBS, coverslips were stained with Alexa Fluor 488 Phalloidin and visualized by fluorescence microscopy.

In the case of `COCCC(=O)NC[C@H](O)[C@H](C)C(=O)NCCC[C@H]1O[C@@]2(CCC[C@@H](CC[C@H](C)/C=C(\C)[C@H](C)O)O2)CCC1C` (stereo partly drawn) [Analog 10], in the assay with A549 cells, the “concentration giving complete growth inhibition” value stood at 5 µM. In addition, the “Growth Percent, Mean” value in assay [1] amounted to 50.03%. Also, the Kd on G-actin worked out at 9 nM. The “F-actin depolymerization in DU145 cells” value in assay [2] was “A similar effect of 10 on F-actin depolymerization was also observed”. Further, the “F-actin depolymerization in A549 cells” value in the assay on F-actin in A549 cells is given as “depolymerized F-actin in A549 cells in a dose-dependent manner”. Also, the “concentration at which noticeable actin disassembly was detected” value with F-actin in A549 cells (A549 cells) came out at 250 nM.

In general, Kd refers to a measure of binding affinity in units of concentration.
